This note sets out measurements from publication PMC11160566 (ACS infectious diseases, 2024).

Molecules are shown by their SMILES.

The target in experiment [1] is T1, GES-5 carbapenemase (Klebsiella pneumoniae, UniProt Q09HD0). Put plainly: X-ray crystal structure of acyl-enzyme. The format is binding.
The target in experiment [2] is T1, GES-5 carbapenemase. Put plainly: reporter substrate hydrolysis, absorbance at […] nm. In kind it is biochemical.

T1 sequence (Q09HD0 19-287): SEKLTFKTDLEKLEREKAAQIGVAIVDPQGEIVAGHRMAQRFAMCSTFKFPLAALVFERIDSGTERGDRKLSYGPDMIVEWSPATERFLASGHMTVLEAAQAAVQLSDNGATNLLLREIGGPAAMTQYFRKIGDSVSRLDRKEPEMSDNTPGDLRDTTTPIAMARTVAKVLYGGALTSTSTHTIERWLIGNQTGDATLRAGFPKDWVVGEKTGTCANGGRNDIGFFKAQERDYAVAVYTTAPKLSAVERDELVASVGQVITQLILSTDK

With `C[C@@H](O)[C@H]1C(=O)N2C(C(=O)O)=C(S[C@@H]3CN[C@H](C(=O)N(C)C)C3)[C@H](C)[C@H]12` [MEM, meropenem], the “X-ray crystal structure of acyl-enzyme (1.62 Å)” value on GES-5 carbapenemase [1] was “The 3D structures of the acyl-enzyme complexes of GES-5-meropenem and GES-5-NA-1-157 were determined by X-ray crystallography”. Regarding `O=C(Cc1cccs1)N[C@@H]1C(=O)N2C(C(=O)O)=C(/C=C/c3ccc([N+](=O)[O-])cc3[N+](=O)[O-])CS[C@H]12` [nitrocefin], the “reporter substrate hydrolysis, absorbance at 500 nm” value on GES-5 carbapenemase [2] is on record as “The progress curves for nitrocefin hydrolysis by GES-5 in the presence of NA-1-157”.
